Measurements: US4048299A, “Anticaries confectionaries and oral health products” (William Wrigley, Jr. Co., priority 1970, dated 1977)

How the values were obtained:
[1] = tested on: Lactobacillus casei ATCC 4646; assay: Acid production inhibition by aldehydes in product vehicles, broth-tube technique; assay type: cell-based; settings: 1 to 5 percent aldehyde
Experimental: (§1) Other in vitro evaluations utilized a broth tube analysis of representative anticaries aldehydes incorporated in the vehicles of this invention against cultures of acid producing microorganisms normally present in the mouth. Standard laboratory procedures were utilized throughout to evaluate the acid production inhibition and growth inhibition over the incubation time of up to 24 hours.
(§2) (a)Measured by broth-tube technique.
(§3) In formulating Tables XIII - XIX representative aldehydes having anticaries activity were selected from those tested as summarized in Tables I - XII and incorporated in seven representative types of products. The products included dextrose and sucrose syrups, obtained commercially in food grades, and compressed candy, hard candy, mouthwash, toothpaste and toothpowder. The five latter products also employed food grade and reagent grade ingredients. These products were formulated by well-known and representative recipes for each type of product. The products were formed in batches of approximately 1 pound or 1 liter and contained all their normal constitutents. Aliquots of each products were blended with one of each of the representative aldehydes selected except in the case of hard candy.
(§4) Aliquots of the aldehyde incorporating sugar syrups, confectioneries, and mouthwash formulations were added directly to assay flasks and mixed or dissolved as required. Aqueous extracts of the aldehyde incorporated in toothpaste and toothpowder were prepared and aliquots of the filtrate were added to the assay flasks.
(§5) The assay flasks contained the necessary components for a normal growth response from the organisms employed, Lactobacillus casei ATCC 4646, originally a human oral isolate, Streptococcus spp. K1-R, human caries isolate, and a mixed oral microbial population obtained fresh from saliva on the morning prior to the initiation of each assay incubation period. The assay flask medium was dissolved in distilled water in which was added an equal volume of filter sterilized human saliva to yield a 50 percent saliva-medium combination. The medium contained all normal ingredients such as yeast extract, proteose peptone number 3 (a proprietary formula of Difco Laboratories, Detroit, Michigan) monopotassium phosphate, Tween 80 (polyoxethylene sorbitan monoleate) and water, except a carbon source. This was supplied by the aliquot of the sucrose syrup, dextrose syrup, sucrose in the compressed candy tablet and sucrose in the hard candy product. In addition, an aliquot of sucrose solution concentrate was added to the assay flask as a carbon source for evaluation of mouthwash, toothpaste, and toothpowder vehicles.
(§6) The lower aldehydes such as glycolaldehyde, crystalline dimer; pyruvaldehyde, aqueous syrup; d,1-glyceraldehyde solution and crystalline dimer; and glutaraldehyde, employed as a 50 percent aqueous solution, are water soluble and were employed directly either as powders or aqueous solutions. The C8 to C12, longer chain aliphatic aldehydes, of which decyl and dodecyl (lauric) were selected as representative, are oil soluble and are prepared and added to the products as emulsions with four parts of Tween 20, polyoxethylene sorbitan monolaurate. The aldehyde concentrations in the products were randomly chosen between 1 to 5 percent by weight. Limits for the concentrations were selected to coincide with the data presented in Tables I - XII in order to verify that the anticaries activity of the aldehydes in the product vehicles tested was equivalent to the activity previously established for the aldehydes alone.

Streptococcus spp. KI-R [2] = assay: as above; assay type: cell-based; settings: 1 to 5 percent aldehyde
Experimental: as §1, §2, §3, §4, §5, §6

[3] = tested on: Mixed human oral microorganisms; assay: as above; assay type: cell-based; settings: 1 to 5 percent aldehyde
Experimental: as §1, §2, §3, §4, §5, §6

Streptococcus spp. KI-R [4] = assay: Growth inhibition by aldehydes in product vehicles, pour-plate technique; assay type: cell-based; settings: 1 to 5 percent aldehyde
Experimental: as §1
(b)Measured by pour-plate technique.
as §3, §4, §5, §6

Lactobacillus casei = assay: Acid production inhibition, broth-tube technique; settings: single agent
Source text: (§7) The data was compiled through well-known broth tube analysis techniques.

[5] = In vivo caries evaluation, laboratory animals (summary); settings: one percent level in diet
Source text: Standard laboratory techniques were used to complie the data presented. In each case the aldehyde was incorporated into each specimen's food in a one percent, by weight, quantity, over a period of several weeks. In all cases, caries reduction was noted.
The aldehydes tested in vivo were pyruvaldehyde, d,1-glyceraldehyde, crystalline dimer, glycolaldehyde, octanaldehyde, nonanaldehyde, decanaldehyde, undecylenic aldehyde, and lauric aldehyde. The polyaldehydes tested were dialdehyde starch, dialdehyde starch 50 percent oxidized, dialdehyde starch 90 percent oxidized, and dialdehyde galactomannan gum.

Streptococcus sp. FA-1 = assay: Acid production inhibition, broth-tube technique; settings: single agent
Source text: as §7

[6] = in compressed candy tablet, 2 h incubation
[7] = in compressed candy tablet, 5 h incubation
[8] = in compressed candy tablet, 24 h incubation
[9] = in dextrose syrup, 2 h incubation
[10] = in dextrose syrup, 5 h incubation
[11] = in dextrose syrup, 24 h incubation
[12] = in sucrose syrup, 2 h incubation
[13] = in sucrose syrup, 5 h incubation
[14] = in sucrose syrup, 24 h incubation
[15] = in tooth powder (aqueous extract), 2 h incubation
[16] = in tooth powder (aqueous extract), 5 h incubation
[17] = in tooth powder (aqueous extract), 24 h incubation
[18] = in toothpaste (aqueous extract), 2 h incubation
[19] = in toothpaste (aqueous extract), 5 h incubation
[20] = in toothpaste (aqueous extract), 24 h incubation

O=C[C@H](O)CO (racemic) [d,1-Glyceraldehyde]
Acid Production Inhibition [1, 6]: 0 Per Cent | Acid Production Inhibition [1, 7]: 0 Per Cent | Acid Production Inhibition [1, 8]: 73 Per Cent | Acid Production Inhibition [1, 9]: 57 Per Cent | Acid Production Inhibition [1, 10]: 33 Per Cent | Acid Production Inhibition [1, 11]: 89 Per Cent | Acid Production Inhibition [1, 12]: 0 Per cent | Acid Production Inhibition [1, 13]: 30 Per cent | Acid Production Inhibition [1, 14]: 79 Per cent | Acid Production Inhibition [1, 15]: 0 Per cent | Acid Production Inhibition [1, 16]: 0 Per cent | Acid Production Inhibition [1, 17]: 84 Per cent | Acid Production Inhibition [1, 18]: 0 Per cent | Acid Production Inhibition [1, 19]: 0 Per cent | Acid Production Inhibition [1, 20]: 0 Per cent | Acid Production Inhibition (Streptococcus spp. KI-R [2]; [6]): 0 Per Cent | Acid Production Inhibition (Streptococcus spp. KI-R [2]; [7]): 25 Per Cent | Acid Production Inhibition (Streptococcus spp. KI-R [2]; [8]): 84 Per Cent | Acid Production Inhibition (Streptococcus spp. KI-R [2]; [9]): 48 Per Cent | Acid Production Inhibition (Streptococcus spp. KI-R [2]; [10]): 86 Per Cent | Acid Production Inhibition (Streptococcus spp. KI-R [2]; [11]): 82 Per Cent | Acid Production Inhibition (Streptococcus spp. KI-R [2]; in mouthwash, 2 h incubation): 0 Per cent | Acid Production Inhibition (Streptococcus spp. KI-R [2]; in mouthwash, 5 h incubation): 0 Per cent | Acid Production Inhibition (Streptococcus spp. KI-R [2]; in mouthwash, 24 h incubation): 86 Per cent | Acid Production Inhibition (Streptococcus spp. KI-R [2]; [12]): 69 Per cent | Acid Production Inhibition (Streptococcus spp. KI-R [2]; [13]): 88 Per cent | Acid Production Inhibition (Streptococcus spp. KI-R [2]; [14]): 86 Per cent | Acid Production Inhibition (Streptococcus spp. KI-R [2]; [15]): 0 Per cent | Acid Production Inhibition (Streptococcus spp. KI-R [2]; [16]): 0 Per cent | Acid Production Inhibition (Streptococcus spp. KI-R [2]; [17]): 0 Per cent | Acid Production Inhibition (Streptococcus spp. KI-R [2]; [18]): 0 Per cent | Acid Production Inhibition (Streptococcus spp. KI-R [2]; [19]): 0 Per cent | Acid Production Inhibition (Streptococcus spp. KI-R [2]; [20]): 0 Per cent | Acid Production Inhibition [3, 6]: 0 Per Cent | Acid Production Inhibition [3, 7]: 91 Per Cent | Acid Production Inhibition [3, 8]: 87 Per Cent | Acid Production Inhibition [3, 9]: 8 Per Cent | Acid Production Inhibition [3, 10]: 90 Per Cent | Acid Production Inhibition [3, 11]: 77 Per Cent | Acid Production Inhibition ([3]; in mouthwash, 2 h incubation): 0 Per cent | Acid Production Inhibition ([3]; in mouthwash, 5 h incubation): 91 Per cent | Acid Production Inhibition ([3]; in mouthwash, 24 h incubation): 39 Per cent | Acid Production Inhibition [3, 12]: 72 Per cent | Acid Production Inhibition [3, 13]: 93 Per cent | Acid Production Inhibition [3, 14]: 16 Per cent | Acid Production Inhibition [3, 15]: 0 Per cent | Acid Production Inhibition [3, 16]: 48 Per cent | Acid Production Inhibition [3, 17]: 18 Per cent | Acid Production Inhibition [3, 18]: 0 Per cent | Acid Production Inhibition [3, 19]: 0 Per cent | Acid Production Inhibition [3, 20]: 0 Per cent | Growth Inhibition (Streptococcus spp. KI-R [4]; [6]): 0 Per Cent | Growth Inhibition (Streptococcus spp. KI-R [4]; [7]): N.S. | Growth Inhibition (Streptococcus spp. KI-R [4]; [8]): N.S. | Growth Inhibition (Streptococcus spp. KI-R [4]; [9]): 98 Per Cent | Growth Inhibition (Streptococcus spp. KI-R [4]; [10]): > 99.99 Per Cent | Growth Inhibition (Streptococcus spp. KI-R [4]; [11]): > 100 Per Cent | Growth Inhibition (Streptococcus spp. KI-R [4]; in mouthwash, 2 h incubation): > 99.99 Per cent | Growth Inhibition (Streptococcus spp. KI-R [4]; in mouthwash, 5 h incubation): 99.99 Per cent | Growth Inhibition (Streptococcus spp. KI-R [4]; in mouthwash, 24 h incubation): 100 Per cent | Growth Inhibition (Streptococcus spp. KI-R [4]; [12]): 90 Per cent | Growth Inhibition (Streptococcus spp. KI-R [4]; [13]): 90 Per cent | Growth Inhibition (Streptococcus spp. KI-R [4]; [14]): 99 Per cent | Growth Inhibition (Streptococcus spp. KI-R [4]; [15]): 99.88 Per cent | Growth Inhibition (Streptococcus spp. KI-R [4]; [16]): 99.99 Per cent | Growth Inhibition (Streptococcus spp. KI-R [4]; [17]): 100 Per cent | Growth Inhibition (Streptococcus spp. KI-R [4]; [18]): N.S. | Growth Inhibition (Streptococcus spp. KI-R [4]; [19]): N.S. | Growth Inhibition (Streptococcus spp. KI-R [4]; [20]): 0 Per cent | Acid Production Inhibition (Lactobacillus casei; 0.02 percent): 11% | Acid Production Inhibition (Lactobacillus casei; 0.03 percent): 17% | Acid Production Inhibition (Lactobacillus casei; 0.04 percent): 22% | Anticaries effect in laboratory animals [5]: significant anticaries effects | Acid Production Inhibition (Streptococcus sp. FA-1; 0.01 percent): 4% | Acid Production Inhibition (Streptococcus sp. FA-1; 0.015 percent): 10% | Acid Production Inhibition (Streptococcus sp. FA-1; 0.02 percent): 21%
